Data published in patent publication US7811820B2, “Smooth muscle cell differentiation with CRP, SRF and GATA factors” (Baylor College of Medicine, priority 2003, dated 2010).
“Also recorded” adds a separate entry of the source.

Columns and labels:
Format in all cases: cell-based, monkey
[1] = system: CRP2 nuclear localization in CV1 cells; assay: Indirect immunofluorescence of V5 epitope-tagged CRP2 localization in transfected CV1 cells; details: for CRP2 accumulation in the nucleus: after one hour of treatment; for CRP2 accumulation / localization in the nucleus: summary statement, no concentration given; for Nuclear localization of epitope-tagged CRP2: cytochalasin D 5 μg/ml, latrunculin B not shown
Description: (§1) FIGS. 9A-9B show signaling mechanisms involved in CRP2 nuclear localization. In FIG. 9A, there is indirect immunofluorescent analysis of V5 epitope-tagged CRP2 (green) in CV1 cells. Untreated control CV1 cells show global localization of CRP2. […] Fold-activation was determined by comparison to the transfection with empty expression vector in lane 1.
In CV1 fibroblasts, overexpressed wild type CRP2 localizes both in the nucleus and in the cytoplasmic compartments, similar to the subcellular distribution pattern of endogenous CRP2 (Chang et al., 2003). When NLS- or NES-tag is added, the fusion CRP2-NLS or CRP2-NES protein becomes over 90% nuclear- or cytoplasmic-exclusive localized, respectively (FIG. 8A). These reagents allow functional analyses to differentiate nuclear versus cytoplasmic functions of CRP2. […] Nuclear distribution of CRP2 is coincident with reporter gene activation.
(§2) To elucidate the mechanism controlling CRP2 shuttling, the inventors treated transiently transfected monkey CV1 fibroblasts with drugs that either affect cytoskeletal integrity ([…], cytochalasin D, latrunculin B) or are inhibitors of nuclear export (leptomycin B) and looked for changes in the distribution of CRP2.

[2] = system: SMA promoter; assay: SMA-luciferase reporter transactivation assay in CV1 cells; details: CV1 cells cotransfected with CRP2, SRF and GATA6, drug added 12 h after cotransfection, lysates 6-24 h post-drug
[3] = system: SM22α promoter; assay: SM22α promoter luciferase reporter assay in CV1 cells
[4] = system: actin cytoskeleton; assay: Actin cytoskeleton integrity in CV1 cells (rhodamine phalloidin)
Description: as §1, §2

Row | Compound | cells with CRP2 nuclear localization ([1]; 10 μM in growth medium of transfected CV1 fibroblasts) | CRP2 accumulation in the nucleus [1] | CRP2 accumulation / localization in the nucleus [1] | SMA gene activation / SMA-Luc reporter activity after drug treatment [2] | SMA gene activation / SMA-Luc reporter activity after drug treatment ([2]; listed as Y-26732) | SM22α promoter activity after drug treatment [3] | transfected CV1 cells displaying CRP2 accumulation in the nucleus ([1]; 2 hr of 10 μg/ml treatment) | Nuclear localization of epitope-tagged CRP2 [1] | dissolution of the actin cytoskeleton [4]
1 | C[C@@H](N)[C@H]1CC[C@H](C(=O)Nc2ccncc2)CC1 [Y-27632] | 68% | accumulate in the nucleus | facilitated CRP2 nuclear localization | further upregulates; also recorded: further up-regulated | increases | further up-regulated |  |  | 
2 | CCC(=C/[C@H](C)C/C=C/C(C)=C/[C@@H](C)C(=O)[C@@H](C)[C@H](O)[C@@H](C)C/C(C)=C/C(=O)O)/C=C/[C@@H]1OC(=O)C=C[C@@H]1C [leptomycin B] |  | accumulate in the nucleus | induced CRP2 accumulation in the nucleus |  |  |  | 82% |  | 
3 | C=C1[C@@H](C)[C@H]2[C@H](Cc3ccccc3)NC(=O)[C@]23[C@H](OC(C)=O)/C=C/[C@@](C)(O)C(=O)[C@@H](C)C/C=C/[C@H]3[C@@H]1O [cytochalasin D] |  | accumulate in the nucleus |  |  |  |  |  | observed | completely dissolved the actin cytoskeleton within one hour
4 | C/C1=C/C(=O)O[C@@H]2C[C@@H](CC[C@H](C)/C=C\CC1)O[C@@](O)([C@@H]1CSC(=O)N1)C2 [latrunculin B] |  |  |  |  |  |  |  | observed | completely dissolved the actin cytoskeleton within one hour
